Results on 22 compounds are retold here after patent publication US20250340561A1, “QUINAZOLINE COMPOUND FOR INDUCING DEGRADATION OF G12D MUTANT KRAS PROTEIN” (Astellas Pharma Inc., priority 2021, published 2025).

The term DC50 denotes the midpoint of the concentration-degradation curve. Low values mean degradation at low concentration, high ones degradation only at high concentration.

In this test the target is T1, KRAS G12D (Homo sapiens, UniProt P01116, G12D).
T1 construct: host or cells: AsPC-1 human pancreatic cancer cells
T1 sequence (P01116 1-188 isoform P01116-2 G12D): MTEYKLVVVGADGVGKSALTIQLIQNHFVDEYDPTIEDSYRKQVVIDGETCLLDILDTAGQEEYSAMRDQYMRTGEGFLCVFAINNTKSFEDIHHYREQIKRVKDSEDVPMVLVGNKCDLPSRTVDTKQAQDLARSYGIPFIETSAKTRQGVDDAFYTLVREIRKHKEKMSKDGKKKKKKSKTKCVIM
The test can be described thus: Test Example 1-2: KRAS degradation action in AsPC-1, Cell ELISA. The class given is cell-based. The conditions noted are these: AsPC-1 cells, overnight treatment, corrected with β-actin, 0% = 10 μM Example No. 26 (Example No. 8 for Example Nos. 74 and 75). The procedure: Test Example 1-2: Evaluation of KRAS Degradation Action on Human G12D Mutant KRAS-Positive Pancreatic Cancer Line AsPC-1
The KRAS degradation action of test compounds was evaluated by measuring the expression levels of KRAS G12D by Cell ELISA.
[…] As for the cell culture conditions, a RPMI 1640 medium containing 10% fetal bovine serum was used in the presence of 5% CO2 at 37° C. The next day, the test compounds (10 points having final concentrations in the range of 10 μM to 0.3 nM), the compound of Example No. 26 (Example No. 8 for Example Nos. 74 and 75) of a final concentration of 10 μM as a positive control and DMSO, which was the solvent for the test compounds, as a negative control were diluted 500-fold with a fresh medium and were added at 20 μL per well. The cells were cultured overnight.
The next day, the culture supernatant was removed, and 4% paraformaldehyde phosphate buffer (from FUJIFILM Wako Pure Chemical Corporation) was added at 20 μL per well. The plate was allowed to stand for 30 minutes at room temperature to thus immobilize the cells. Then, the supernatant was removed, and 0.1% Triton X-100 (from Amersham Biosciences)-containing PBS was added at 20 μL per well. After allowing to stand for 10 minutes at room temperature, the supernatant was removed. PBS was added at 25 μL per well, and the supernatant was removed to thus wash each well. The washing was performed twice in total. Next, the supernatant was removed, and 0.5% sodium dodecyl sulfate (SDS; from Invitrogen)-containing PBS was added at 20 μL per well. After allowing to stand at room temperature for 10 minutes, the supernatant was removed by centrifugation (using a centrifugal dehydrator machine, the supernatant was removed by the same method hereinafter). PBS was added at 25 μL per well, and the supernatant was removed to thus wash each well. The washing was performed twice in total. The supernatant was removed by centrifugation, and a blocking solution (Intercept Blocking Buffer) was added at 20 μL per well. After allowing to stand for 30 minutes at room temperature, the supernatant was removed by centrifugation, and a solution obtained by diluting an anti-Ras (G12D Mutant Specific) antibody and an anti-3-actin antibody 1,000-fold with a blocking solution was added at 20 μL per well as a primary antibody. The plate was allowed to stand overnight at 4° C.
The next day, the plate was centrifuged to remove the supernatant. PBS was added at […], and the supernatant was removed to thus wash each well. The washing was performed twice in total. The supernatant was removed by centrifugation, and a solution obtained by diluting Donkey anti-Mouse IgG H&L (TRDye 680RD) (from Li—COR Biosciences) and Goat anti-Rabbit IgG H&L (IRDye 800CW) (from Li—COR Biosciences) 1,000-fold with a blocking solution was added at 20 μL per well as a secondary antibody. After allowing to stand for 1 hour at room temperature, the supernatant was removed. PBS was added at 25 μL per well, and the supernatant was removed to thus wash each well. The washing was performed twice in total. After removing the supernatant by centrifuging the plate, the plate was dried as it was with air at room temperature for 2 hours or more, and the 700-nm and 800-nm fluorescent signals were measured with Aerius (from LI-COR Biosciences).
With the signaling value at the time of addition of DMSO corrected with the signaling value of β-actin taken as 100% and with the signaling value at the time of addition of 10 μM of the compound of Example No. 26 taken as 0%, the 50% degradation values (DC50) of the amounts of KRAS were calculated by Sigmoid-Emax model nonlinear regression analysis. The molecular weights of the test compounds were calculated as the molecular weights of the trihydrochloride for Example No. 30, the tetrahydrochloride for Example No. 46 and the free forms forming no salt for the remaining Example Nos. The results for some test compounds of the formula (I) are shown in Table 2.
`Cc1c(F)cc2[nH]ncc2c1-c1c(C2CC2)cc2c(N3C[C@@H]4C[C@H]3CN4)nc(OC3CCOCC3)nc2c1OCc1ccc(-c2cn([C@H](C(=O)N3C[C@H](O)C[C@H]3C(=O)N[C@@H](CO)c3cccc(S(C)(=O)=O)c3)C(C)C)nn2)cc1` [Example 67] showed a DC50 of 840 nM. This counts as sub-micromolar.
For `Cc1ncsc1-c1ccc([C@H](CO)NC(=O)[C@@H]2C[C@@H](O)CN2C(=O)[C@H](C(C)C)n2cc(-c3ccc(COc4c(-c5c(C)c(F)cc6[nH]ncc56)c(C5CC5)cc5c(N6C[C@@H]7C[C@H]6CN7)nc(O[C@H](C)[C@@H](C)O)nc45)cc3)nn2)cc1` (atropisomer, axis not shown) [Example 37] the value was 25 nM.
`CO[C@@H](C)COc1nc(N2C[C@@H]3C[C@H]2CN3)c2cc(C3CC3)c(-c3c(C)c(F)cc4[nH]ncc34)c(OCc3ccc(-c4cn([C@H](C(=O)N5C[C@H](O)C[C@H]5C(=O)N[C@@H](CO)c5ccc(-n6ccnc6C)cc5)C(C)C)nn4)cc3)c2n1` [Example 71] came in with a DC50 of 35 nM.
Turning to `COCCN1CC[C@H](Oc2nc(N3C[C@@H]4C[C@H]3CN4)c3cc(C4CC4)c(-c4c(C)c(F)cc5[nH]ncc45)c(OCc4ccc(-c5cn([C@H](C(=O)N6C[C@H](O)C[C@H]6C(=O)N[C@@H](CO)c6ccc(-c7scnc7C)cc6)C(C)C)nn5)cc4)c3n2)C1` [Example 32], the DC50 was 139 nM.
In the case of `Cc1ncsc1-c1ccc([C@H](CO)NC(=O)[C@@H]2C[C@@H](O)CN2C(=O)[C@H](C(C)C)n2cc(-c3ccc(COc4c(-c5c(C)c(F)cc6[nH]ncc56)c(C5CC5)cc5c(N6C[C@@H]7C[C@H]6CN7)nc(OC[C@H](C)N6CCCC6)nc45)cc3)nn2)cc1` [Example 64] it was 48 nM; in that of `Cc1ncsc1-c1ccc([C@H](CO)NC(=O)[C@@H]2C[C@@H](O)CN2C(=O)[C@H](C(C)C)n2cc(-c3ccc(COc4c(-c5c(C)c(F)cc6[nH]ncc56)c(C5CC5)cc5c(N6C[C@@H]7C[C@H]6CN7)nc(O[C@@H](C)[C@H](C)O)nc45)cc3)nn2)cc1` [Example 42], 6 nM.
As to `Cc1ncsc1-c1ccc([C@H](CO)NC(=O)[C@@H]2C[C@@H](O)CN2C(=O)[C@H](C2CC2)n2cc(-c3ccc(COc4c(-c5c(C)c(F)cc6[nH]ncc56)c(C5CC5)cc5c(N6C[C@@H]7C[C@H]6CN7)nc(OC6CCOCC6)nc45)cc3)nn2)cc1` [Example 73], it took 134 nM to reach half-maximal degradation (DC50).
For `CO[C@@H](C)COc1nc(N2C[C@@H]3C[C@H]2CN3)c2cc(C3CC3)c(-c3c(C)c(F)cc4[nH]ncc34)c(OCc3ccc(-c4cn([C@H](C(=O)N5C[C@H](O)C[C@H]5C(=O)N[C@@H](CO)c5ccc(F)cc5)C(C)C)nn4)cc3)c2n1` [Example 58] the value was 37 nM; for `CCn1nccc1-c1ccc([C@H](CO)NC(=O)[C@@H]2C[C@@H](O)CN2C(=O)[C@H](C(C)C)n2cc(-c3ccc(COc4c(-c5c(C)c(F)cc6[nH]ncc56)c(C5CC5)cc5c(N6C[C@@H]7C[C@H]6CN7)nc(OC[C@H](C)OC)nc45)cc3)nn2)cc1` [Example 70], 14 nM.
The compound `CO[C@@H](C)COc1nc(N2C[C@@H]3C[C@H]2CN3)c2cc(C3CC3)c(-c3c(C)c(F)cc4[nH]ncc34)c(OCc3ccc(-c4cn([C@H](C(=O)N5C[C@H](O)C[C@H]5C(=O)N[C@@H](CO)c5ccc(-c6ocnc6C)cc5)C(C)C)nn4)cc3)c2n1` [Example 72] came in with a DC50 of 16 nM.
Take `Cc1c(F)cc2[nH]ncc2c1-c1c(C2CC2)cc2c(N3C[C@@H]4C[C@H]3CN4)nc(OC3CCOCC3)nc2c1OCc1ccc(-c2cn([C@H](C(=O)N3C[C@H](O)C[C@H]3C(=O)N[C@@H](CO)c3ccccc3F)C(C)C)nn2)cc1` [Example 30]: the 50% degradation concentration (DC50) worked out at 157 nM.
In the case of `Cc1ncsc1-c1ccc([C@H](CO)NC(=O)[C@@H]2C[C@@H](O)CN2C(=O)[C@H](C(C)C)n2cc(-c3ccc(COc4c(-c5c(C)c(F)cc6[nH]ncc56)c(C5CC5)cc5c(N6C[C@@H]7C[C@H]6CN7)nc(OC6CCOCC6)nc45)cc3)nn2)nc1` [Example 35] it was 84 nM; in that of `Cc1ncsc1-c1ccc([C@H](CO)NC(=O)[C@@H]2C[C@@H](O)CN2C(=O)[C@H](C(C)C)n2cc(-c3ccc(COc4c(-c5c(C)c(F)cc6[nH]ncc56)c(C5CC5)cc5c(N6C[C@@H]7C[C@H]6CN7)nc(OC[C@@H]6CCOC6)nc45)cc3)nn2)cc1` [Example 53], 8 nM.
For `Cc1ncsc1-c1ccc([C@H](CO)NC(=O)[C@@H]2C[C@@H](O)CN2C(=O)[C@H](C(C)C)n2cc(-c3ccc(COc4c(-c5c(C)c(F)cc6[nH]ncc56)c(C5CC5)cc5c(N6C[C@@H]7C[C@H]6CN7)nc(OC6CCOCC6)nc45)cc3F)nn2)cc1` [Example 49, (4R)-1-[(2S)-2-(4-{4-[({6-cyclopropyl-4-[(1S,4S)-2,5-diazabicyclo[2.2.1]heptan-2-yl]-7-(6-fluoro-5-methyl-1H-indazol-4-yl)-2-[(oxan-4-yl)oxy]quinazolin-8-yl}oxy)methyl]-2-fluorophenyl}-1H-1,2,3-triazol-1-yl)-3-methylbutanoyl]-4-hydroxy-N-{(1R)-2-hydroxy-1-[4-(4-methyl-1,3-thiazol-5-yl)phenyl]ethyl}-L-prolinamide] the value was 15 nM; for `COC[C@H](C)Oc1nc(N2C[C@@H]3C[C@H]2CN3)c2cc(C3CC3)c(-c3c(C)c(F)cc4[nH]ncc34)c(OCc3ccc(-c4cn([C@H](C(=O)N5C[C@H](O)C[C@H]5C(=O)N[C@@H](CO)c5ccc(-c6scnc6C)cc5)C(C)C)nn4)cc3)c2n1` [Example 54], 8 nM.
`COC[C@@H](C)Oc1nc(N2C[C@@H]3C[C@H]2CN3)c2cc(C3CC3)c(-c3c(C)c(F)cc4[nH]ncc34)c(OCc3ccc(-c4cn([C@H](C(=O)N5C[C@H](O)C[C@H]5C(=O)N[C@@H](CO)c5ccc(-c6scnc6C)cc5)C(C)C)nn4)cc3)c2n1` [Example 40] gave a DC50 of 5 nM.
As for `Cc1ncsc1-c1ccc([C@H](CO)NC(=O)[C@@H]2C[C@@H](O)CN2C(=O)[C@H](C(C)C)n2cc(-c3ccc(COc4c(-c5c(C)c(F)cc6[nH]ncc56)c(C5CC5)cc5c(N6C[C@@H]7C[C@H]6CN7)nc(OC[C@H]6CCCN6C)nc45)cc3)nn2)cc1` [Example 60], the DC50 is 102 nM.
With `Cc1ncoc1-c1ccc([C@H](CO)NC(=O)[C@@H]2C[C@@H](O)CN2C(=O)[C@H](C(C)C)n2cc(-c3ccc(COc4c(-c5c(C)c(F)cc6[nH]ncc56)c(C5CC5)cc5c(N6C[C@@H]7C[C@H]6CN7)nc(OC6CCOCC6)nc45)cc3)nn2)cc1` [Example 38], the DC50 was 53 nM.
Regarding `Cc1ncsc1-c1ccc([C@H](CO)NC(=O)[C@@H]2C[C@@H](O)CN2C(=O)[C@H](C(C)C)n2cc(-c3ccc(COc4c(-c5c(C)c(F)cc6[nH]ncc56)c(C5CC5)cc5c(N6C[C@@H]7C[C@H]6CN7)nc(OCC6(CO)CC6)nc45)cc3)nn2)cc1` [Example 61], the DC50 came to 21 nM.
As to `Cc1ncsc1-c1ccc([C@H](CO)NC(=O)[C@@H]2C[C@@H](O)CN2C(=O)[C@H](C(C)C)n2cc(-c3ccc(COc4c(-c5c(C)c(F)cc6[nH]ncc56)c(C5CC5)cc5c(N6C[C@@H]7C[C@H]6CN7)nc(OC[C@@H]6CCOC6)nc45)cc3)nn2)cc1` [Example 50], it took 11 nM to reach half-maximal degradation (DC50).
In the case of `Cc1ncsc1-c1ccc([C@H](CO)NC(=O)[C@@H]2C[C@@H](O)CN2C(=O)[C@H](C(C)C)n2cc(-c3ccc(COc4c(-c5c(C)c(F)cc6[nH]ncc56)c(C5CC5)cc5c(N6C[C@@H]7C[C@H]6CN7)nc(O[C@H]6CCN(CC(F)F)C6)nc45)cc3)nn2)cc1` [Example 33] it was 30 nM; in that of `Cc1ncsc1-c1ccc([C@H](CO)NC(=O)[C@@H]2C[C@@H](O)CN2C(=O)[C@H](C(C)C)n2cc(-c3ccc(COc4c(-c5c(C)c(F)cc6[nH]ncc56)c(C5CC5)cc5c(N6C[C@@H]7C[C@H]6CN7)nc(OCC6(CO)CCOCC6)nc45)cc3)nn2)cc1` (atropisomer, axis not shown) [Example 36], 17 nM.
